These results are taken from patent US20210060118A1, “THERAPEUTIC HOMODIMER AND USES THEREOF” (priority 2014, published 2021).

Structures are written as SMILES. Where “and” joins values, the source holds several entries; their conditions need not be identical. Equal values may be shown once. Entries after “also recorded” stand apart in the source; their conditions may differ. Read-outs that look alike come from different tables or passages of the source. Bridge positions count the residues as written; N and C are the ends. Peptide text beside a SMILES is read from it. I, II: the chains in the order shown.

The subject of data set [1] is human buccal tissue model.
Description: (§1) A human buccal tissue model was used for in vitro testing of the permeability of a number of disulphide-linked homodimers.
(§2) Human oral mucosa tissue models were prepared in accordance with the standard protocols of a commercial reagent supplier (EpiOral™, MatTek Corporation; for details see http://www.mattek.com/epioral/applications/drug-delivery; see also for example Thakur et al., Drug Development and Industrial Pharmacy, 2007, 33(5), pages 513-52). In brief, the tissue models were prepared in tissue culture wells of 24-well plates containing an inner well (insert) with a microporous membrane base coated with an extracellular matrix preparation, on which the human mucosal cells were seeded. The inner well was submerged in the reagent supplier's recommended serum free culture medium which permeates through the microporous membrane to feed the cells in the insert. The cells were submerged in the culture medium for a few days, after insertion of the inner wells into the tissue culture wells and permeation of the culture medium into the inner wells, in accordance with the reagent supplier's recommendation. The inserts containing the developing tissues were then elevated to the air/liquid interface which induces stratification and differentiation. The resulting human buccal cell cultures were stratified, three dimensional tissues comprising 25-30 cell layers, non-cornified with nucleated cells extending up to the apical surface and with histology similar to that of native buccal tissue.
(§3) The buccal tissue culture inserts were transferred from the original tissue culture 24-well plates (maintained at 4° C. in sealed bags containing 5% CO2) under sterile conditions into wells of a fresh 24-well plate containing 1.0 ml of the reagent supplier's recommended serum free medium pre-warmed to 37° C. The plate was then incubated in a humidified incubator at 37° C. in a 5% CO2 atmosphere for one hour as a pre-equilibration procedure prior to dosing.
(§4) After removal of the pre-equilibrated plate from the incubator, any culture medium over the surface of the tissue was carefully removed and replaced with 100 μL of appropriately diluted homodimer solution in reagent supplier's recommended serum free culture medium (stock homodimer-containing medium). The plate was then incubated for a further 30 minutes at 37° C. in a 5% CO2 atmosphere. The plate was removed from the incubator and supernatant samples were taken from above the cells, inside the insert, and analysed by HPLC. The main peak areas for each tested peptide in the supernatants were compared to the corresponding peak areas for the tested peptides in the relevant pre-incubation samples of the stock homodimer-containing medium.
Data set [2] has as its system human buccal tissue model. Briefly: Human buccal tissue permeability screening (EpiOral tissue model, HPLC of supernatant). Particulars: for Transmissibility (%): 30 minutes at 37° C.; for Peak Area by HPLC of Peptides in Solution, Post-overlay: supernatant above cells after 30 minutes at 37° C.
Description: as §1, §2, §3, §4
Data set [3] has as its system human diabetic patients. Briefly: Therapeutic efficacy testing in human diabetic patients (HbA1c). It is filed as in vivo. The following applies: for HbA1c % Change: day 35 vs baseline; for HbA1c % Baseline (Mean ± sd.): before first dose. The method, then: Homodimer C was tested in human clinical trials to determine therapeutic efficacy of transmucosal delivery. Both intraoral (sublingual) delivery and peroral delivery were tested. Two further groups of patients were administered an injectable preparation of Homodimer C to allow a comparison of the effects of transmucosal delivery to the effects of injection delivery.
Diabetic patients treated with oral anti-diabetic drugs (e.g. sulfonylurea type drugs) or insulin were recruited and randomised to four patient groups: two injectable peptide groups (Groups 1 and 2) and to two oral peptide dosage groups, for delivery of Homodimer C either by sublingual administration (Group 3) or via enteric coated capsules (Group 4).
Each group was administered five doses of Homodimer C. Homodimer C was administered once weekly (at days 0, 7, 14, 21 and 28 of the study) at a dose of 2 mg (which equates to approximately 0.03 mg/kg for a notional 70 kg subject) for all four groups. The homodimer injections were intramuscular, generally into the upper arm of the subjects. The patients' current treatment was not withdrawn during the study. HbA1c levels were determined in advance of the first dose and at day 35 of the study.

[4] abbreviates: Table 1, stock homodimer-containing medium before incubation.

For the compound `CC[C@H](C)[C@H](NC(=O)[C@H](CC(N)=O)NC(=O)[C@@H](N)CSSC[C@H](N)C(=O)N[C@@H](CC(N)=O)C(=O)N[C@H](C(=O)N[C@@H](Cc1ccc(O)cc1)C(=O)N1CCC[C@H]1C(=O)N[C@@H](CO)C(=O)N[C@@H](CC(=O)O)C(=O)N[C@@H](CO)C(=O)N[C@@H](Cc1ccc(O)cc1)C(=O)N[C@H](C(=O)N[C@@H](CC(N)=O)C(=O)N[C@@H](Cc1ccc(O)cc1)C(=O)N[C@@H](CC(N)=O)C(=O)N[C@@H](CCC(N)=O)C(=O)N[C@@H](CCCCN)C(=O)N[C@@H](Cc1ccccc1)C(=O)N[C@@H](CCCCN)C(=O)N[C@@H](CC(=O)O)C(=O)O)[C@@H](C)O)[C@@H](C)CC)C(=O)N[C@@H](Cc1ccc(O)cc1)C(=O)N1CCC[C@H]1C(=O)N[C@@H](CO)C(=O)N[C@@H](CC(=O)O)C(=O)N[C@@H](CO)C(=O)N[C@@H](Cc1ccc(O)cc1)C(=O)N[C@H](C(=O)N[C@@H](CC(N)=O)C(=O)N[C@@H](Cc1ccc(O)cc1)C(=O)N[C@@H](CC(N)=O)C(=O)N[C@@H](CCC(N)=O)C(=O)N[C@@H](CCCCN)C(=O)N[C@@H](Cc1ccccc1)C(=O)N[C@@H](CCCCN)C(=O)N[C@@H](CC(=O)O)C(=O)O)[C@@H](C)O` [Homodimer A] (I: H-CNIYPSDSYTNYNQKFKD-OH / II: H-CNIYPSDSYTNYNQKFKD-OH; disulfide I:1-II:1; N-terminus and C-terminus assumed), in data set [1], the “Peak Area by HPLC of Peptides in Solution, Post-overlay” value (from here on “Peak Area by HPLC … Post-overlay”) was determined as 4439; the “Peak Area by HPLC of Peptides in Solution, Pre-overlay” value (shortened to “Peak Area by HPLC … Pre-overlay”) is given as 5398; the “Transmissibility (%)” value was determined as 17.7%; the “transmissibility (absorption) across the human buccal tissue surface, in words” value (shortened to “transmissibility … in words”) was “only poor transmissibility”.
In the case of `CC(C)C[C@H](NC(=O)CNC(=O)[C@H](CCCNC(=N)N)NC(=O)[C@H](CC(C)C)NC(=O)[C@@H](N)CSSC[C@H](N)C(=O)N[C@@H](CC(C)C)C(=O)N[C@@H](CCCNC(=N)N)C(=O)NCC(=O)N[C@@H](CC(C)C)C(=O)N[C@@H](CC(C)C)C(=O)N1CCC[C@H]1C(=O)N[C@@H](CC(=O)O)C(=O)N[C@@H](Cc1ccc(O)cc1)C(=O)O)C(=O)N[C@@H](CC(C)C)C(=O)N1CCC[C@H]1C(=O)N[C@@H](CC(=O)O)C(=O)N[C@@H](Cc1ccc(O)cc1)C(=O)O` [Homodimer B, reference compound] (I: H-CLRGLLPDY-OH / II: H-CLRGLLPDY-OH; disulfide I:1-II:1; N-terminus and C-terminus assumed), in data set [2], the “transmissibility … in words” value is reported as “did not demonstrate any transmissibility”. Moreover, in data set [2] (Table 1), the “Transmissibility (%)” value amounted to 0% and the “Peak Area by HPLC … Post-overlay” value is reported as 2396. In addition, the “Peak Area by HPLC … Pre-overlay” value in data set [2] (setting [4]) is given as 2023.
On to `CC(C)C[C@H](NC(=O)[C@@H]1CCCN1C(=O)[C@H](Cc1ccc(O)cc1)NC(=O)[C@H](CO)NC(=O)[C@H](CC(N)=O)NC(=O)[C@H](Cc1ccc(O)cc1)NC(=O)[C@H](CCC(N)=O)NC(=O)[C@H](CCC(N)=O)NC(=O)[C@@H](N)CSSC[C@H](N)C(=O)N[C@@H](CCC(N)=O)C(=O)N[C@@H](CCC(N)=O)C(=O)N[C@@H](Cc1ccc(O)cc1)C(=O)N[C@@H](CC(N)=O)C(=O)N[C@@H](CO)C(=O)N[C@@H](Cc1ccc(O)cc1)C(=O)N1CCC[C@H]1C(=O)N[C@@H](CC(C)C)C(=O)N[C@H](C(=O)O)[C@@H](C)O)C(=O)N[C@H](C(=O)O)[C@@H](C)O` [Homodimer C] (I: H-CQQYNSYPLT-OH / II: H-CQQYNSYPLT-OH; disulfide I:1-II:1; N-terminus assumed), for which the “transmissibility … in words” value in data set [2] is given as “transmitted efficiently; also recorded: efficient uptake”. Also, the “Transmissibility (%)” value in data set [2] (Table 1) is 94.1%; in data set [2] (Table 2, triplicate cultures), 93.3% and 84.5% and 100%. The “Peak Area by HPLC … Pre-overlay” value came out at 4142 in data set [2] (setting [4]) and 4142 in data set [2] (Table 2, triplicate cultures, stock medium before incubation). Besides, the “Peak Area by HPLC … Post-overlay” value in data set [2] (Table 1) turned out to be 243. Also, in data set [3] (2 mg once weekly x5), the “efficacy of intraoral (sublingual) or peroral routes compared with parenteral (injection)” value is listed as “significantly more effective”. For the same compound, the “HbA1c % Change” value is −0.60% in data set [3] (Group 1, intramuscular injection 2 mg once weekly x5, insulin only, P = 0.045); −0.75% in data set [3] (Group 2, intramuscular injection 2 mg once weekly x5, P = 0.033); −1.33% in data set [3] (Group 3, sublingual 2 mg once weekly x5, P = 0.005); −1.18% in data set [3] (Group 4, enteric coated capsule (peroral) 2 mg once weekly x5, P = 0.016). Moreover, the “HbA1c % Day 35 (Mean ± sd.)” value in data set [3] (Group 1, intramuscular injection 2 mg once weekly x5, previous treatment insulin only, n = 17) was 10.74 ± 2.0%; in data set [3] (Group 2, intramuscular injection 2 mg once weekly x5, oral anti-diabetics and/or insulin, n = 18), 9.57 ± 1.79%; in data set [3] (Group 3, sublingual 2 mg once weekly x5, n = 7), 7.85 ± 2.03%; in data set [3] (Group 4, enteric coated capsule (peroral) 2 mg once weekly x5, n = 7), 8.12 ± 1.04%. Besides, the “HbA1c % Baseline (Mean ± sd.)” value was 11.34 ± 2.6% in data set [3] (Group 1, intramuscular injection, previous treatment insulin only, n = 17); 10.32 ± 2.24% in data set [3] (Group 2, intramuscular injection, previous oral anti-diabetics and/or insulin, n = 18); 9.18 ± 2.64% in data set [3] (Group 3, sublingual, previous oral anti-diabetics and/or insulin, n = 7); 9.30 ± 1.65% in data set [3] (Group 4, enteric coated capsule (peroral), previous oral anti-diabetics and/or insulin, n = 7). In data set [3] (doses of approximately 2 mg (approximately 0.03 mg/kg)), the “side-effects in human patients” value is given as “without significant undesirable side-effects”. Moreover, the “mean HbA1c levels at day 35 relative to mean baseline, in words” value in data set [3] (each of Groups 1-4) is reported as “significantly reduced”.
